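How tested: cells in 96-well plates exposed to compound for 48 hours at five concentrations. GI50 marks 50% less growth.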 Active and inactive are the calls of the source. No stated cut-off is given here; in the data, active = GI50 up to about 1.1 µM and inactive = higher.
What was measured:
Test in all cases: NCI anticancer screen, dose series, 48 h
IGROV-1 = test system: IGROV-1
HT-29 = test system: HT-29
OVCAR-3 = test system: OVCAR-3
Hs-578T = test system: Hs-578T
UACC-62 = test system: UACC-62
SK-MEL-5 = test system: SK-MEL-5
DU-145 = test system: DU-145
EKVX = test system: EKVX
M14 = test system: M14
MDA-N = test system: MDA-N
SF-539 = test system: SF-539
UACC-257 = test system: UACC-257
NCI-H522 = test system: NCI-H522
KM12 = test system: KM12
MDA-MB-435 = test system: MDA-MB-435
CCRF-CEM = test system: CCRF-CEM
786-0 = test system: 786-0
Malme-3M = test system: Malme-3M
HOP-62 = test system: HOP-62
NCI/ADR-RES = test system: NCI/ADR-RES
OVCAR-5 = test system: OVCAR-5
ACHN = test system: ACHN
OVCAR-8 = test system: OVCAR-8
HCC 2998 = test system: HCC 2998
A498 = test system: A498
SR = test system: SR
RXF 393 = test system: RXF 393
MOLT-4 = test system: MOLT-4
NCI-H460 = test system: NCI-H460
SK-MEL-2 = test system: SK-MEL-2
BT-549 = test system: BT-549
NCI-H23 = test system: NCI-H23
SNB-75 = test system: SNB-75
UO-31 = test system: UO-31
HCT-116 = test system: HCT-116
T47D = test system: T47D
SF-268 = test system: SF-268
RPMI-8226 = test system: RPMI-8226
SNB-19 = test system: SNB-19
PC-3 = test system: PC-3
SN12C = test system: SN12C
U-251 = test system: U-251
K562 = test system: K562
HCT-15 = test system: HCT-15
COLO 205 = test system: COLO 205
HL-60 = test system: HL-60
MCF7 = test system: MCF7
LOX IMVI = test system: LOX IMVI
HOP-92 = test system: HOP-92
A549 = test system: A549
TK-10 = test system: TK-10
SW-620 = test system: SW-620
SF-295 = test system: SF-295
CAKI-1 = test system: CAKI-1
SK-MEL-28 = test system: SK-MEL-28
OVCAR-4 = test system: OVCAR-4
NCI-H226 = test system: NCI-H226
MDA-MB-231 = test system: MDA-MB-231

CC1C(c2ccc(N(C)C)cc2)c2cc3c(cc2OC1N1CCCC1)OCO3 (centres undefined)
GI50 (IGROV-1): > 65.8 µM (inactive) | GI50 (HT-29): 32.5 µM (inactive) | GI50 (OVCAR-3): 43.5 µM (inactive) | GI50 (Hs-578T): 28.8 µM (inactive) | GI50 (UACC-62): 46.1 µM (inactive) | GI50 (SK-MEL-5): 30.6 µM (inactive) | GI50 (DU-145): 66.2 µM (inactive) | GI50 (EKVX): 64.6 µM (inactive) | GI50 (M14): 31.9 µM (inactive) | GI50 (MDA-N): 14.6 µM (inactive) | GI50 (SF-539): 21.7 µM (inactive) | GI50 (UACC-257): > 92.5 µM (inactive) | GI50 (NCI-H522): 29.5 µM (inactive) | GI50 (KM12): 47.2 µM (inactive) | GI50 (MDA-MB-435): 16.6 µM (inactive) | GI50 (CCRF-CEM): 36 µM (inactive) | GI50 (786-0): 43 µM (inactive) | GI50 (Malme-3M): 40.7 µM (inactive) | GI50 (HOP-62): 25.2 µM (inactive) | GI50 (NCI/ADR-RES): 33.6 µM (inactive) | GI50 (OVCAR-5): > 87.1 µM (inactive) | GI50 (ACHN): > 72.9 µM (inactive) | GI50 (OVCAR-8): 70.3 µM (inactive) | GI50 (HCC 2998): 34.6 µM (inactive) | GI50 (A498): 20.7 µM (inactive) | GI50 (SR): 38.8 µM (inactive) | GI50 (RXF 393): 22.9 µM (inactive) | GI50 (MOLT-4): 48.8 µM (inactive) | GI50 (NCI-H460): 34.5 µM (inactive) | GI50 (SK-MEL-2): 30.5 µM (inactive) | GI50 (BT-549): 38.2 µM (inactive) | GI50 (NCI-H23): 58.3 µM (inactive) | GI50 (SNB-75): > 34.4 µM (inactive) | GI50 (UO-31): 30.8 µM (inactive) | GI50 (HCT-116): 36.4 µM (inactive) | GI50 (T47D): 54.3 µM (inactive) | GI50 (SF-268): 66.8 µM (inactive) | GI50 (RPMI-8226): 36.1 µM (inactive) | GI50 (SNB-19): 48.3 µM (inactive) | GI50 (PC-3): 37.3 µM (inactive) | GI50 (SN12C): 63.1 µM (inactive) | GI50 (U-251): 34 µM (inactive) | GI50 (K562): 32.5 µM (inactive) | GI50 (HCT-15): 36.9 µM | GI50 (COLO 205): 45 µM (inactive) | GI50 (HL-60): 28 µM (inactive) | GI50 (MCF7): 24.3 µM (inactive) | GI50 (LOX IMVI): 38.2 µM (inactive) | GI50 (HOP-92): 6.25 µM (inactive) | GI50 (A549): 45.3 µM (inactive) | GI50 (TK-10): 98.6 µM (inactive) | GI50 (SW-620): 42 µM (inactive) | GI50 (SF-295): 32.1 µM (inactive) | GI50 (CAKI-1): 38.5 µM (inactive) | GI50 (SK-MEL-28): > 72.8 µM (inactive) | GI50 (OVCAR-4): > 100 µM (inactive)

Cc1ccc(/C=C2\Cc3cccc(C)c3C2=O)c(C(=O)O)c1
GI50 (IGROV-1): 96.6 µM (inactive) | GI50 (HT-29): > 100 µM (inactive) | GI50 (OVCAR-3): 94.2 µM (inactive) | GI50 (Hs-578T): > 100 µM (inactive) | GI50 (NCI-H226): > 100 µM (inactive) | GI50 (SK-MEL-5): 71.1 µM (inactive) | GI50 (DU-145): > 100 µM (inactive) | GI50 (EKVX): > 100 µM (inactive) | GI50 (M14): > 100 µM (inactive) | GI50 (MDA-N): > 100 µM (inactive) | GI50 (SF-539): 74.8 µM (inactive) | GI50 (UACC-257): > 100 µM (inactive) | GI50 (NCI-H522): 22.3 µM (inactive) | GI50 (KM12): 55.5 µM (inactive) | GI50 (CCRF-CEM): 36.9 µM (inactive) | GI50 (786-0): > 100 µM (inactive) | GI50 (Malme-3M): > 100 µM (inactive) | GI50 (HOP-62): > 100 µM (inactive) | GI50 (MDA-MB-231): 66.2 µM (inactive) | GI50 (OVCAR-5): > 100 µM (inactive) | GI50 (ACHN): 28.7 µM (inactive) | GI50 (OVCAR-8): 97.7 µM (inactive) | GI50 (HCC 2998): 39.1 µM (inactive) | GI50 (A498): > 100 µM (inactive) | GI50 (SR): 90.4 µM (inactive) | GI50 (RXF 393): 29.3 µM (inactive) | GI50 (MOLT-4): 48.2 µM (inactive) | GI50 (NCI-H460): > 100 µM (inactive) | GI50 (BT-549): 62.7 µM (inactive) | GI50 (NCI-H23): > 100 µM (inactive) | GI50 (SNB-75): > 100 µM (inactive) | GI50 (UO-31): 17.3 µM (inactive) | GI50 (HCT-116): 72.9 µM (inactive) | GI50 (T47D): 42.7 µM (inactive) | GI50 (SF-268): > 100 µM (inactive) | GI50 (RPMI-8226): 36.3 µM (inactive) | GI50 (SNB-19): > 100 µM (inactive) | GI50 (PC-3): 99.5 µM (inactive) | GI50 (SN12C): > 100 µM (inactive) | GI50 (U-251): 57.9 µM (inactive) | GI50 (K562): 99.8 µM (inactive) | GI50 (HCT-15): 39.2 µM | GI50 (HL-60): 85.7 µM (inactive) | GI50 (MCF7): > 10 µM (inactive) | GI50 (LOX IMVI): 64.4 µM (inactive) | GI50 (HOP-92): 17.3 µM (inactive) | GI50 (A549): 74.3 µM (inactive) | GI50 (TK-10): > 100 µM (inactive) | GI50 (SW-620): > 100 µM (inactive) | GI50 (SF-295): > 100 µM (inactive) | GI50 (CAKI-1): 19.9 µM (inactive) | GI50 (SK-MEL-28): 97.3 µM (inactive) | GI50 (OVCAR-4): 21.1 µM (inactive)

— ChEMBL document CHEMBL1201862, “PubChem BioAssay data set” (2004)
